Test results from patent US10421761B2, “Compounds for kinase modulation, and indications therefor” (Plexxikon Inc., priority 2013, dated 2019).

Key:
B9 (HRAS Q61L) cell line = assay: B9 P-ERK cell activation assay (AlphaScreen); type: cell-based, mouse; conditions: Mus musculus; P-ERK cell activation, B9; numeric bounds; read-out: Cell activity (EC50 μM) B9_pERK
Method in brief: (§1)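 Phospho-ERK1/2 (Thr202/Tyr204) in lysates quantified via AlphaScreen bead proximity, after one-hour, 37° C. exposure of cells to eight compound concentrations. Lines: IPC-298 human melanoma with activated NRAS; B9 mouse squamous carcinoma with activated HRAS.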

[1] = test system: IPC-298 (NRAS Q61L) cell line; assay: IPC-298 P-ERK cell activation assay (AlphaScreen); type: cell-based, human; conditions: Homo sapiens; P-ERK cell activation, IPC-298; numeric bounds; read-out: Cell activity (EC50 μM) IPC-298_P-ERK
Method in brief: as §1

BRAF V600E = target: T1, BRAF V600E (Homo sapiens, UniProt P15056, V600E); assay: BRAF V600E biochemical kinase activity assay (AlphaScreen, biotin-MEK1 substrate); conditions: BRAF V600E biochemical inhibitory activity
T1 construct: purchased Upstate Biotechnology
T1 sequence (P15056 whole entry V600E): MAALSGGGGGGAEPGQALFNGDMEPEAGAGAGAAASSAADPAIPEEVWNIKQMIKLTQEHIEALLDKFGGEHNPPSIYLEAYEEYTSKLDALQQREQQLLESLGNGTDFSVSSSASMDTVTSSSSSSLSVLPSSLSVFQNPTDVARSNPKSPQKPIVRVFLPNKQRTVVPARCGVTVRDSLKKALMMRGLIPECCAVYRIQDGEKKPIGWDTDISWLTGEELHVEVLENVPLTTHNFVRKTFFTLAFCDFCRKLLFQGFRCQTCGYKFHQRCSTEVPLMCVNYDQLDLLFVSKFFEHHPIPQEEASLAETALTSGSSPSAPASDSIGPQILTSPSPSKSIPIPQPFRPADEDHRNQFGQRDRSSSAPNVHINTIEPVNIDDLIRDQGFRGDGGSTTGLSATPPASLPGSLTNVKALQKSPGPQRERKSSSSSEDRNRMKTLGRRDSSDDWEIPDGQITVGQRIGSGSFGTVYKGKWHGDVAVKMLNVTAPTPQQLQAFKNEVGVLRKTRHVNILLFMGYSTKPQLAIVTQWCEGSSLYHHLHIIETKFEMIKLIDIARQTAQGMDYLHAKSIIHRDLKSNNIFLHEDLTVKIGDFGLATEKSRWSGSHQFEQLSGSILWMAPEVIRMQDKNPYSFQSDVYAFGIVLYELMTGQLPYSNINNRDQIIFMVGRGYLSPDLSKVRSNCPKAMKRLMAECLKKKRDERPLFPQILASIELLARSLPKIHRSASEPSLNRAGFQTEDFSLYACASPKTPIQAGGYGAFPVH

[2] = test system: A375 (BRAF V600E) cell line; assay: A375 P-ERK inhibition assay (AlphaScreen); type: cell-based, human; conditions: Homo sapiens, A-375; A375_P-ERK
Method in brief: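 Phospho-ERK1/2 (Thr202/Tyr204) detected in lysates by AlphaScreen proximity signal, pairing a total-ERK antibody with a phospho-specific antibody. Before lysis, A375 cells received compound as an 8-point titration for one hour at 37° C.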

EC50 (B9 (HRAS Q61L) cell line)	EC50 [1]	IC50 (BRAF V600E)	IC50 [2]	Structure (SMILES)
> 10 µM	> 10 µM	0.0001 to 1 µM	0.0001 to 1 µM	CCN(CC)S(=O)(=O)Nc1cc(Cl)cc(-c2cn(C(C)C)nc2-c2ccnc(NC[C@H](C)NC(=O)OC)n2)c1F [P-2165, methyl N-[(1S)-2-[[4-[4-[5-chloro-3-(diethylsulfamoylamino)-2-fluoro-phenyl]-1-isopropyl-pyrazol-3-yl]pyrimidin-2-yl]amino]-1-methyl-ethyl]carbamate]
> 10 µM	> 10 µM	0.0001 to 1 µM	0.0001 to 1 µM	CCN(C)S(=O)(=O)Nc1cccc(C(=O)c2c[nH]c3ncnc(NC4CCC(F)(F)CC4)c23)c1F [P-2068, 4-[(4,4-difluorocyclohexyl)amino]-5-[3-[[ethyl(methyl)sulfamoyl]amino]-2-fluoro-benzoyl]-7H-pyrrolo[2,3-d]pyrimidine]
> 10 µM	> 10 µM	0.0001 to 1 µM	0.0001 to 1 µM	COCCCNc1ncnc2[nH]cc(C(=O)c3cccc(NS(=O)(=O)N4CCCC4)c3F)c12 [P-2105, N-[2-fluoro-3-[4-(3-methoxypropylamino)-7H-pyrrolo[2,3-d]pyrimidine-5-carbonyl]phenyl]pyrrolidine-1-sulfonamide]
> 10 µM	> 10 µM	0.0001 to 1 µM	0.0001 to 1 µM	CCOC(=O)CNc1ncnc2[nH]cc(C(=O)c3cccc(NS(=O)(=O)N4CCCC4)c3F)c12 [P-2103, ethyl 2-[[5-[2-fluoro-3-(pyrrolidin-1-ylsulfonylamino)benzoyl]-7H-pyrrolo[2,3-d]pyrimidin-4-yl]amino]acetate]
> 10 µM	> 10 µM	0.0001 to 1 µM	1 to 10 µM	CCN(CC)S(=O)(=O)Nc1ccc(F)c(C(=O)c2c[nH]c3nccc(Cl)c23)c1F [Compound P-2011, 4-chloro-3-[3-(diethylsulfamoylamino)-2,6-difluoro-benzoyl]-1H-pyrrolo[2,3-b]pyridine]
> 10 µM	> 10 µM	0.0001 to 1 µM	> 10 µM	COc1ccnc2[nH]cc(C(=O)c3c(F)ccc(NS(=O)(=O)C(C)C)c3F)c12 [Compound P-2001, N-[2,4-difluoro-3-(4-methoxy-1H-pyrrolo[2,3-b]pyridine-3-carbonyl)phenyl]propane-2-sulfonamide]
> 10 µM	> 10 µM	0.0001 to 1 µM	0.0001 to 1 µM	[2H]C1([2H])N(S(=O)(=O)Nc2cc(Cl)cc(C(=O)c3c[nH]c4ncc(-c5cnc(C6CC6)nc5)cc34)c2F)C([2H])([2H])C([2H])([2H])C1([2H])[2H] [P-2177, N-[5-chloro-3-[5-(2-cyclopropylpyrimidin-5-yl)-1H-pyrrolo[2,3-b]pyridine-3-carbonyl]-2-fluoro-phenyl]-2,2,3,3,4,4,5,5-octadeuterio-pyrrolidine-1-sulfonamide]
> 10 µM	> 10 µM	0.0001 to 1 µM	0.0001 to 1 µM	CCN(C)S(=O)(=O)Nc1ccc(F)c(C(=O)c2c[nH]c3ncnc(NC(C)C)c23)c1F [P-2117, 5-[3-[[ethyl(methyl)sulfamoyl]amino]-2,6-difluoro-benzoyl]-4-(isopropylamino)-7H-pyrrolo[2,3-d]pyrimidine]
> 10 µM	> 10 µM	0.0001 to 1 µM	> 10 µM	N#Cc1ccnc2[nH]cc(C(=O)c3c(F)ccc(NS(=O)(=O)C4CCC4)c3F)c12 [P-2021, N-[3-(4-cyano-1H-pyrrolo[2,3-b]pyridine-3-carbonyl)-2,4-difluoro-phenyl]cyclobutanesulfonamide]
> 10 µM	> 10 µM	1 to 10 µM	> 10 µM	O=C(c1c(F)ccc(NS(=O)(=O)N2CCOCC2)c1F)c1c[nH]c2ncncc12 [P-2031, N-[2,4-difluoro-3-(7H-pyrrolo[2,3-d]pyrimidine-5-carbonyl)phenyl]morpholine-4-sulfonamide]
> 10 µM	> 10 µM	0.0001 to 1 µM	0.0001 to 1 µM	O=C(c1cccc(NS(=O)(=O)N2CCCC2)c1F)c1c[nH]c2ncnc(NCC3CC(O)C3)c12 (stereo not shown) [P-2098, N-[2-fluoro-3-[4-[(3-hydroxycyclobutyl)methylamino]-7H-pyrrolo[2,3-d]pyrimidine-5-carbonyl]phenyl]pyrrolidine-1-sulfonamide]
> 10 µM	> 10 µM	0.0001 to 1 µM	1 to 10 µM	CCN(CC)S(=O)(=O)Nc1ccc(F)c(C(=O)c2c[nH]c3nccc(C#N)c23)c1F [P-2012, 4-cyano-3-[3-(diethylsulfamoylamino)-2,6-difluoro-benzoyl]-1H-pyrrolo[2,3-b]pyridine]
> 10 µM	> 10 µM	0.0001 to 1 µM	0.0001 to 1 µM	O=C(c1cccc(NS(=O)(=O)N2CCCC2)c1F)c1c[nH]c2ncnc(C3CC3)c12 [P-2078, N-[3-(4-cyclopropyl-7H-pyrrolo[2,3-d]pyrimidine-5-carbonyl)-2-fluoro-phenyl]pyrrolidine-1-sulfonamide]
> 10 µM	> 1 µM	0.0001 to 1 µM	0.0001 to 1 µM	Cc1nc2c(-c3sc(C(C)(C)C)nc3-c3cccc(NS(=O)(=O)N4CCCC4)c3F)ncnc2[nH]1 [P-2124, N-[3-[2-tert-butyl-5-(8-methyl-9H-purin-6-yl)thiazol-4-yl]-2-fluoro-phenyl]pyrrolidine-1-sulfonamide]
> 1 µM	> 1 µM	0.0001 to 1 µM	0.0001 to 1 µM	CN(C)S(=O)(=O)Nc1cccc(-c2nc(C(C)(C)C)sc2-c2ccnc(N)n2)c1F [P-2093, 5-(2-aminopyrimidin-4-yl)-2-tert-butyl-4-[3-(dimethylsulfamoylamino)-2-fluoro-phenyl]thiazole]
> 10 µM	> 10 µM	0.0001 to 1 µM	1 to 10 µM	O=C(O)CNc1ncnc2[nH]cc(C(=O)c3cccc(NS(=O)(=O)N4CCCC4)c3F)c12 [P-2109, 2-[[5-[2-fluoro-3-(pyrrolidin-1-ylsulfonylamino)benzoyl]-7H-pyrrolo[2,3-d]pyrimidin-4-yl]amino]acetic acid]
> 10 µM	> 10 µM	1 to 10 µM	> 10 µM	CN(C)S(=O)(=O)Nc1ccc(F)c(C(=O)c2c[nH]c3ncncc23)c1F [P-2026, 5-[3-(dimethylsulfamoylamino)-2,6-difluoro-benzoyl]-7H-pyrrolo[2,3-d]pyrimidine]
> 10 µM	> 10 µM	0.0001 to 1 µM	> 10 µM	N#Cc1ccnc2[nH]cc(C(=O)c3c(F)ccc(NS(=O)(=O)C4CCCCC4)c3F)c12 [P-2018, N-[3-(4-cyano-1H-pyrrolo[2,3-b]pyridine-3-carbonyl)-2,4-difluoro-phenyl]cyclohexanesulfonamide]
> 10 µM	> 10 µM	0.0001 to 1 µM	0.0001 to 1 µM	O=C(c1c(F)ccc(NS(=O)(=O)N2CCOCC2)c1F)c1c[nH]c2nccc(Cl)c12 [P-2024, N-[3-(4-chloro-1H-pyrrolo[2,3-b]pyridine-3-carbonyl)-2,4-difluoro-phenyl]morpholine-4-sulfonamide]
> 10 µM	> 10 µM	0.0001 to 1 µM	0.0001 to 1 µM	CCN(C)S(=O)(=O)Nc1cccc(C(=O)c2c[nH]c3ncnc(NC[C@@H]4CCCO4)c23)c1F [P-2074, 5-[3-[[ethyl(methyl)sulfamoyl]amino]-2-fluoro-benzoyl]-4-[[(2S)-tetrahydrofuran-2-yl]methylamino]-7H-pyrrolo[2,3-d]pyrimidine]
> 10 µM	> 10 µM	0.0001 to 1 µM	1 to 10 µM	CCCC(C)S(=O)(=O)Nc1ccc(F)c(C(=O)c2c[nH]c3nccc(OC)c23)c1F (stereo not shown) [Compound P-2009, N-[2,4-difluoro-3-(4-methoxy-1H-pyrrolo[2,3-b]pyridine-3-carbonyl)phenyl]pentane-2-sulfonamide]
> 10 µM	> 10 µM	0.0001 to 1 µM	0.0001 to 1 µM	O=C(c1c(F)ccc(NS(=O)(=O)N2CCOCC2)c1F)c1c[nH]c2ncnc(NCC3CC3)c12 [P-2054, N-[3-[4-(cyclopropylmethylamino)-7H-pyrrolo[2,3-d]pyrimidine-5-carbonyl]-2,4-difluoro-phenyl]morpholine-4-sulfonamide]
> 10 µM	> 10 µM	0.0001 to 1 µM	0.0001 to 1 µM	CC(C)(C)c1nc(-c2cccc(NS(=O)(=O)N3CCCC3)c2F)c(-c2ncnc3[nH]ccc23)s1 [P-2122, N-[3-[2-tert-butyl-5-(7H-pyrrolo[2,3-d]pyrimidin-4-yl)thiazol-4-yl]-2-fluoro-phenyl]pyrrolidine-1-sulfonamide]
> 10 µM	> 10 µM	0.0001 to 1 µM	0.0001 to 1 µM	CCN(C)S(=O)(=O)Nc1cccc(C(=O)c2c[nH]c3ncnc(N[C@H](C)C4CC4)c23)c1F [P-2079, 4-[[(1R)-1-cyclopropylethyl]amino]-5-[3-[[ethyl(methyl)sulfamoyl]amino]-2-fluoro-benzoyl]-7H-pyrrolo[2,3-d]pyrimidine]
> 10 µM	> 10 µM	0.0001 to 1 µM	0.0001 to 1 µM	CCN(C)S(=O)(=O)Nc1cccc(C(=O)c2c[nH]c3ncnc(NCC4CC4)c23)c1F [P-2064, 4-(cyclopropylmethylamino)-5-[3-[[ethyl(methyl)sulfamoyl]amino]-2-fluoro-benzoyl]-7H-pyrrolo[2,3-d]pyrimidine]
